What is called CC50 is the concentration giving 50% cytotoxicity. A higher CC50 goes with lower toxicity to the cells. One may read the EC50 as the concentration that produces a half-maximal response.

From patent US20240254118A1, “PRMT5 INHIBITORS AND USES THEREOF” (Gilead Sciences, Inc., priority 2022, published 2024) come the findings set out here.

Molecules are shown by their SMILES.

Experiment [1] concerns HCT116 MTAP-deleted cells. Description: Cell viability assay (CellTiter-Glo, 7 days), HCT116 MTAP-deleted. The note with it: Homo sapiens, HCT-116, 168 h.
In experiment [2] the test system is SDMA signal (PRMT5 inhibition) in HCT116 MTAP-deleted cells. The experiment can be described thus: Symmetric di-methyl arginine image-based high content screen assay (SDMA assay), HCT116 MTAP-deleted. Particulars: SDMA assay; for EC50: Homo sapiens, HCT-116, 72 h, 3 days of treatment, cell line not given, taken as HCT116 MTAP-deleted, read-out: EC50 (SDMA assay); for EC50 selectivity (SDMA assay): taken as HCT116 WT versus MTAP-deleted. In kind it is cell-based. On the procedure:
Symmetric di-methyl arginine image-based high content screen assay (SDMA assay) was performed in HCT116 WT and HCT116 MTAP-deleted cell lines to measure Symmetric Di-methyl Arginine (SDMA) signal reduction after selective PRMT5 inhibition in the MTAP-deleted cells.
Briefly, the same compound plates were generated as mentioned in the previous section of Cell viability assay on Day −1.
On Day 3, the cells were fixed by adding 45 μl of 8% neutralized formalin solution to each well using EL460 liquid dispenser 5 μl cassette and the cells were incubated for 30 minutes at room temperature. The formalin solution was washed off with […] phosphate buffered saline (dPBS), the 0.1% Triton X-100 solution in dPBS was used to permeabilize the cells for 15 minutes at room temperature. The triton solution was aspirated, 50 μl of Odyssey Blocking buffer+0.05% Tween20 was added and the plate was incubated at room temperature for 30 minutes.
The blocking solution was removed, a 20 μl of SDMA antibody (Cell Signaling Technology, Cat no. 13222) diluted 1:500 in Odyssey Blocking buffer+0.05% Tween20 was added and the plate was incubated at 4° C. overnight. Next day, the primary SDME antibody solution was washed from each well three times with 0.05% Tween20 in dPBS (PBST).
A 30 μl of the secondary antibody, a Goat anti-Rabbit Alexa Fluor Plus 488 (Invitrogen, Cat no. PIA32731) was diluted 1:500 in Odyssey Blocking buffer+0.05% Tween20 and the plate was incubated for 1.5 hours in dark at room temperature. The secondary antibody solution was removed, 30 μl of 5 mg/ml DAPI solution diluted 1:2000 in dPBS was added and the plate was incubated for 30 minutes in dark at room temperature. The DAPI solution was aspirated and the wells were washed six times with dPBS.
The SDMA signal and DAPI signal per cell were counted using a Cellomics CX7 LZR instrument reading under 488 and 405 nm laser, respectively. The SDMA signal was quantified by mean average intensity per cell from Alexa Fluor Plus 488 after the cell was defined with DAPI.

In turn, `Cn1ncc2c(N)nc3ccc(C(=O)N(Cc4ccc(C(F)(F)F)cn4)N4CCC(F)(F)CC4)cc3c21` [Example 22, 4-amino-N-(4,4-difluoro-1-piperidyl)-1-methyl-N-[[5-(trifluoromethyl)-2-pyridyl]methyl]pyrazolo[4,3-c]quinoline-8-carboxamide] had a CC50 in experiment [1] below 100 nM. In experiment [2], the EC50 is 1 to 5 nM and the “EC50 selectivity (SDMA assay)” value stood at 260.

In the case of `CN(c1ncccn1)N(Cc1ccc(C(F)(F)F)cn1)C(=O)c1ccc2nc(N)c3cnn(C)c3c2c1` [Example 23, 4-amino-N′, 1-dimethyl-N′-(pyrimidin-2-yl)-N-((5-(trifluoromethyl)pyridin-2-yl)methyl)-1H-pyrazolo[4,3-c]quinoline-8-carbohydrazide], the CC50 in experiment [1] is below 100 nM. Besides, in experiment [2], the concentration giving a half-maximal response (EC50) was below 1 nM and the “EC50 selectivity (SDMA assay)” value was 18.

`CN(c1ncccn1)N(Cc1ccc(C(F)(F)F)cn1)C(=O)c1ccc2nc(N)c3ccccc3c2c1` [Example 24, 6-amino-N′-methyl-N′-(pyrimidin-2-yl)-N-((5-(trifluoromethyl)pyridin-2-yl)methyl)phenanthridine-2-carbohydrazide]: the CC50 in experiment [1] was below 100 nM. In addition, in experiment [2], the EC50 is below 1 nM and the “EC50 selectivity (SDMA assay)” value came out at 87.

`CN(c1ccccn1)N(Cc1ccc(C(F)(F)F)cn1)C(=O)c1ccc2nc(N)c3cnn(C)c3c2c1` [Example 25, 4-amino-N′, 1-dimethyl-N′-(2-pyridyl)-N-[[5-(trifluoromethyl)-2-pyridyl]methyl]pyrazolo[4,3-c]quinoline-8-carbohydrazide] returned a CC50 in experiment [1] below 100 nM. In experiment [2], the EC50 lay in the range of 1 to 5 nM and the “EC50 selectivity (SDMA assay)” value was found to be 26.

With `Cn1ncc2c(N)nc3ccc(C(=O)N(Cc4ccc(C(F)(F)F)cn4)N4CCCC4=O)cc3c21` [Example 26, 4-amino-1-methyl-N-(2-oxopyrrolidin-1-yl)-N-[[5-(trifluoromethyl)-2-pyridyl]methyl]pyrazolo[4,3-c]quinoline-8-carboxamide], the CC50 in experiment [1] is below 100 nM. For the same compound, in experiment [2], the EC50 was in the range of 1 to 5 nM and the “EC50 selectivity (SDMA assay)” value was 85.

Compound `Cn1ncc2c(N)nc3ccc(C(=O)N(Cc4ccc(C(F)(F)F)cn4)N4CCCC4)cc3c21` [Example 27, 4-amino-1-methyl-N-pyrrolidin-1-yl-N-[[5-(trifluoromethyl)-2-pyridyl]methyl]pyrazolo[4,3-c]quinoline-8-carboxamide] yielded a CC50 in experiment [1] below 100 nM. Also, in experiment [2], the EC50 is below 1 nM and the “EC50 selectivity (SDMA assay)” value is recorded as 94.

As for `Cn1ncc2c(N)nc3ccc(C(=O)N(Cc4ccc(C(F)(F)F)cn4)N4CCCCC4)cc3c21` [Example 28, 4-amino-1-methyl-N-(1-piperidyl)-N-[[5-(trifluoromethyl)-2-pyridyl]methyl]pyrazolo[4,3-c]quinoline-8-carboxamide], in experiment [1], the CC50 is below 100 nM. In experiment [2], the EC50 was below 1 nM and the “EC50 selectivity (SDMA assay)” value is recorded as 134.

`Cn1ncc2c(N)nc3ccc(C(=O)N(Cc4ccc(C(F)(F)F)cn4)N4CCCCC4=O)cc3c21` [Example 29, 4-amino-1-methyl-N-(2-oxo-1-piperidyl)-N-[[5-(trifluoromethyl)-2-pyridyl]methyl]pyrazolo[4,3-c]quinoline-8-carboxamide] came in with a CC50 in experiment [1] below 100 nM. In addition, in experiment [2], the EC50 is below 1 nM and the “EC50 selectivity (SDMA assay)” value is 43.

Compound `Nc1nc2ccc(C(=O)N(Cc3ccc(C(F)(F)F)cn3)N3CCCCC3=O)cc2c2c1COC2` [Example 30, 4-amino-N-(2-oxo-1-piperidyl)-N-[[5-(trifluoromethyl)-2-pyridyl]methyl]-1,3-dihydrofuro[3,4-c]quinoline-8-carboxamide] registered a CC50 in experiment [1] below 100 nM. Moreover, in experiment [2], the EC50 was below 1 nM and the “EC50 selectivity (SDMA assay)” value was determined as 101.

For `Cn1ncc2c(N)nc3ccc(C(=O)N(Cc4ccc(C(F)(F)F)cn4)N4CCC(C)(C)CC4=O)cc3c21` [Example 31, 4-amino-N-(4,4-dimethyl-2-oxo-1-piperidyl)-1-methyl-N-[[5-(trifluoromethyl)-2-pyridyl]methyl]pyrazolo[4,3-c]quinoline-8-carboxamide], the CC50 in experiment [1] was below 100 nM. Also, in experiment [2], the EC50 lay within 1 to 5 nM and the “EC50 selectivity (SDMA assay)” value stood at 323.

The compound `CN1CCN(N(Cc2ccc(C(F)(F)F)cn2)C(=O)c2ccc3nc(N)c4cnn(C)c4c3c2)C1=O` [Example 32, 4-amino-1-methyl-N-(3-methyl-2-oxo-imidazolidin-1-yl)-N-[[5-(trifluoromethyl)-2-pyridyl]methyl]pyrazolo[4,3-c]quinoline-8-carboxamide] showed a CC50 in experiment [1] below 100 nM. Moreover, in experiment [2], the EC50 was below 1 nM and the “EC50 selectivity (SDMA assay)” value came out at 74.

`CC(=O)N(C)N(Cc1ccc(C(F)(F)F)cn1)C(=O)c1ccc2nc(N)c3cnn(C)c3c2c1` [Example 33, N′-acetyl-4-amino-N′, 1-dimethyl-N-[[5-(trifluoromethyl)-2-pyridyl]methyl]pyrazolo[4,3-c]quinoline-8-carbohydrazide] displayed a CC50 in experiment [1] below 100 nM. Moreover, in experiment [2], the EC50 is below 1 nM and the “EC50 selectivity (SDMA assay)” value came to 73.

For `CC(=O)N(C)N(Cc1ccc(C(F)(F)F)cn1)C(=O)c1cc2c(cc1F)nc(N)c1cnn(C)c12` [Example 34, N′-acetyl-4-amino-7-fluoro-N′, 1-dimethyl-N-[[5-(trifluoromethyl)-2-pyridyl]methyl]pyrazolo[4,3-c]quinoline-8-carbohydrazide], in experiment [1], the CC50 is below 100 nM. Further, in experiment [2], the 50% effective concentration (EC50) is 1 to 5 nM and the “EC50 selectivity (SDMA assay)” value is on record as 8.

Consider `Cn1ncc2c(N)nc3ccc(C(=O)N(Cc4ccc(C(F)(F)F)cn4)N4Cc5ccccc5C4=O)cc3c21` [Example 35, 4-amino-1-methyl-N-(1-oxoisoindolin-2-yl)-N-[[5-(trifluoromethyl)-2-pyridyl]methyl]pyrazolo[4,3-c]quinoline-8-carboxamide], for which the CC50 in experiment [1] was below 100 nM. In experiment [2], the EC50 is below 1 nM and the “EC50 selectivity (SDMA assay)” value amounted to 103.

In turn, `Cn1ncc2c(N)nc3ccc(C(=O)N(Cc4ccc(C(F)(F)F)cn4)N4CCc5ccccc5C4=O)cc3c21` [Example 36, 4-amino-1-methyl-N-(1-oxo-3,4-dihydroisoquinolin-2-yl)-N-[[5-(trifluoromethyl)-2-pyridyl]methyl]pyrazolo[4,3-c]quinoline-8-carboxamide] displayed a CC50 in experiment [1] below 100 nM. For the same compound, in experiment [2], the EC50 is below 1 nM and the “EC50 selectivity (SDMA assay)” value amounted to 30.

In turn, `CN(C(=O)c1ccccc1)N(Cc1ccc(C(F)(F)F)cn1)C(=O)c1ccc2nc(N)c3cnn(C)c3c2c1` [Example 37, 4-amino-N′-benzoyl-N′, 1-dimethyl-N-[[5-(trifluoromethyl)-2-pyridyl]methyl]pyrazolo[4,3-c]quinoline-8-carbohydrazide] returned a CC50 in experiment [1] of 100 to 1000 nM. Further, in experiment [2], the half-maximal effective concentration (EC50) is 1 to 5 nM and the “EC50 selectivity (SDMA assay)” value is reported as 141.

The compound `CCOC(=O)N(C)N(Cc1ccc(C(F)(F)F)cn1)C(=O)c1ccc2nc(N)c3cnn(C)c3c2c1` [Example 38, ethyl N-[(4-amino-1-methyl-pyrazolo[4,3-c]quinoline-8-carbonyl)-[[5-(trifluoromethyl)-2-pyridyl]methyl]amino]-N-methyl-carbamate] came in with a 50% cytotoxic concentration (CC50) in experiment [1] below 100 nM. Moreover, in experiment [2], the EC50 is below 1 nM and the “EC50 selectivity (SDMA assay)” value is recorded as 12.
